Data from US11471465B2 (priority 2017, dated 2022).
Read-outs that look alike come from different tables or passages of the source.

Columns and labels:
[1] = Dissolution testing of the monolayer meloxicam/rizatriptan tablet in 0.01 N HCl, Example 4; type: physicochemical; conditions: monolayer tablet of Example 4, 0.01 N HCl, 75 RPM, 37° C
Procedure: Dissolution testing of the tablets in acidic medium (chosen to simulate gastric conditions) was performed by placing the tablets in a 0.01 N HCl solution, at an agitation rate of 75 RPM, and vessel temperature of approximately 37° C.

[2] = cited from earlier work
[3] = Method: The effect of varying amounts of potassium carbonate (K2CO3) and sodium bicarbonate (NaHCO3) on the pH of acidic media was tested. The acidic media was chosen to simulate gastric conditions. K2CO3 or NaHCO3 was added to 50 mL of a 0.01 N HCl solution (pH 2). The pH of the solution was measured after addition of the K2CO3 or NaHCO3. Deionized water (240 mL) was then added to the mixture and pH was measured again.
[4] = test system: moderate and severe migraine; assay: Phase 3 placebo- and active-controlled trial (MOMENTUM), patients with inadequate response to prior acute treatments, Example 11
[5] = from 2 hours to 24 hours after dosing

Cc1cnc(NC(=O)C2=C(O)c3ccccc3S(=O)(=O)N2C)s1 [Meloxicam]
percent dissolved ([1]; 0 min): 0% | percent dissolved ([1]; 15 min): 79% | percent dissolved ([1]; 30 min): 92% | percent dissolved ([1]; 45 min): 93% | percent dissolved ([1]; 60 min): 93% | percent dissolved ([1]; 90 min): 93% | percent dissolved ([1]; 120 min): 94% | AUC0-24 of meloxicam ([2]; 15 mg IV and intramuscular doses, human beings): about 27 μg·hr/mL | reported Tmax ([2]; intramuscular): 60 to 84 min | reported Tmax ([2]; intravenous bolus): ~3 min | reported Tmax ([2]; intravenous infusion): approximately 30 minutes

O=C([O-])O.[Na+] [NaHCO3, sodium bicarbonate]
pH ([3]; 200 mg NaHCO3, 0.01 N HCl + 240 mL water): 5.41 | pH ([3]; 200 mg NaHCO3 added to 50 mL 0.01 N HCl): 5.28 | pH ([3]; 300 mg NaHCO3, 0.01 N HCl + 240 mL water): 5.89 | pH ([3]; 300 mg NaHCO3 added to 50 mL 0.01 N HCl): 5.90 | pH ([3]; 400 mg NaHCO3, 0.01 N HCl + 240 mL water): 6.11 | pH ([3]; 400 mg NaHCO3 added to 50 mL 0.01 N HCl): 6.44 | pH ([3]; 450 mg NaHCO3, 0.01 N HCl + 240 mL water): 6.46 | pH ([3]; 450 mg NaHCO3 added to 50 mL 0.01 N HCl): 6.86 | pH ([3]; 500 mg NaHCO3, 0.01 N HCl + 240 mL water): 8.33 | pH ([3]; 500 mg NaHCO3 added to 50 mL 0.01 N HCl): 8.23 | pH ([3]; 750 mg NaHCO3, 0.01 N HCl + 240 mL water): 8.54 | pH ([3]; 750 mg NaHCO3 added to 50 mL 0.01 N HCl): 8.30 | pH ([3]; 1000 mg NaHCO3, 0.01 N HCl + 240 mL water): 8.60 | pH ([3]; 1000 mg NaHCO3 added to 50 mL 0.01 N HCl): 8.36

O=C([O-])[O-].[K+].[K+] [Tablet K2CO3, potassium carbonate]
pH ([3]; 25 mg K2CO3 added to 50 mL 0.01 N HCl): 2.84 | pH ([3]; 35 mg K2CO3 added to 50 mL 0.01 N HCl): 6.29 | pH ([3]; 45 mg K2CO3 added to 50 mL 0.01 N HCl): 8.05 | pH ([3]; 50 mg K2CO3 added to 50 mL 0.01 N HCl): 8.29 | pH ([3]; 100 mg K2CO3 added to 50 mL 0.01 N HCl): 9.43 | pH ([3]; 200 mg K2CO3, 0.01 N HCl + 240 mL water): 10.27 | pH ([3]; 200 mg K2CO3 added to 50 mL 0.01 N HCl): 10.14 | pH ([3]; 300 mg K2CO3, 0.01 N HCl + 240 mL water): 10.46 | pH ([3]; 300 mg K2CO3 added to 50 mL 0.01 N HCl): 10.39 | pH ([3]; 400 mg K2CO3, 0.01 N HCl + 240 mL water): 10.57 | pH ([3]; 400 mg K2CO3 added to 50 mL 0.01 N HCl): 10.55 | pH ([3]; 450 mg K2CO3, 0.01 N HCl + 240 mL water): 10.63 | pH ([3]; 450 mg K2CO3 added to 50 mL 0.01 N HCl): 10.58

Rizatriptan
percent dissolved ([1]; 0 min): 0% | percent dissolved ([1]; 15 min): 89% | percent dissolved ([1]; 30 min): 102% | percent dissolved ([1]; 45 min): 103% | percent dissolved ([1]; 60 min): 103% | percent dissolved ([1]; 90 min): 103% | percent dissolved ([1]; 120 min): 103% | patients experiencing relapse of pain ([4]; 48-hour period after dosing): 45.2% | probability of experiencing pain relief ([4]; 24 hours after taking): approximately 60% | proportion of patients experiencing pain relief ([4]; […] after dosing): 52.5% | percentage of patients achieving sustained pain freedom [4, 5]: 11.2% | percentage of patients experiencing sustained pain relief [4, 5]: 43.9% | percentage of patients experiencing sustained pain freedom ([4]; from 2 hours to 48 hours): 8.8% | percentage of patients experiencing sustained pain relief ([4]; from 2 hours to 48 hours): 36.5% | median time to pain relief ([4]; human, in vivo): 4 h | Any Treatment-Emergent Adverse Event, % of subjects ([4]; single dose): (15.4%) | Any Treatment-Emergent Adverse Event, number of subjects ([4]; single dose): 67 | Dizziness, % of subjects ([4]; single dose): (2.1%) | Dizziness, number of subjects ([4]; single dose): 9 | Nausea, % of subjects ([4]; single dose): (4.8%) | Nausea, number of subjects ([4]; single dose): 21 | Somnolence, % of subjects ([4]; single dose): (2.1%) | Somnolence, number of subjects ([4]; single dose): 9 | patients who used rescue medication ([4]; through hour 24 post dose): 34.7%
